The structures appear in SMILES notation. Like-named read-outs stand apart in the source and are kept apart here.

The experiment deals with TGFβ signal. The experiment can be described thus: TGFβ signal inhibitory activity, (SBE)4-Luc reporter in A549 cells (Test Examples 1A and 1B). Type of experiment: cell-based, human. Particulars: Homo sapiens. In short, it runs like this: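 Stable A549 line carrying (SBE)4-Luc Smad3-binding reporter treated with compound plus TGFβ-1 (2 ng/ml) for 4 hr; luciferase read by chemiluminescence. Percent inhibition relative to TGFβ-only and untreated cells, tested at 3 µM and 10 µM, some also at 1 µM.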

[1] abbreviates: A549, test compound 3 µM, Reference Examples, Table 1B, read-out: TGFβ inhibition rate, %.
Setting [2] is: A549, test compound 10 µM, Reference Examples, Table 1B, read-out: TGFβ inhibition rate, %.
Where [3] appears, read: A549, read-out: TGFβ inhibition rate, %.

Consider `COc1cc2nccc(Oc3ccc(C)cc3C(=O)C(C)C)c2cc1OC` [Compound r53], for which the inhibition at 3 µM under setting [1] was determined as 97%. For the same molecule, the inhibition at 10 µM under setting [2] was found to be 100%.

As for `COc1cc2nccc(Oc3ccc(C)cc3C(=O)C(C)(C)C)c2cc1OC` [Compound r54], the inhibition at 3 µM under setting [1] is 13%. The inhibition at 10 µM under setting [2] worked out at 73%.

For `COc1cc2nccc(Oc3ccc(C)cc3C(=O)CC(C)(C)C)c2cc1OC` [Compound r55], the inhibition at 3 µM under setting [1] was found to be 53%. The inhibition at 10 µM under setting [2] turned out to be 98%.

As to `COc1cc2nccc(Oc3ccc(C)cc3C(=O)CCC3CCCC3)c2cc1OC` [Compound r56], under setting [1], the inhibition at 3 µM worked out at 0%. The inhibition at 10 µM under setting [2] was 84%.

Consider `COc1cc2nccc(Oc3ccc(C)cc3C(=O)C3CCCCC3)c2cc1OC` [Compound r59], for which the inhibition at 3 µM under setting [1] turned out to be 65%. Further, the inhibition at 10 µM under setting [2] stood at 99%.

Take `COc1cc2nccc(Oc3ccc(C)cc3C(=O)c3ccco3)c2cc1OC` [Compound r60]: the inhibition at 3 µM under setting [1] was determined as 63%. Besides, the inhibition at 10 µM under setting [2] was 98%.

Regarding `COc1cc2nccc(Oc3ccc(C)cc3C(=O)c3ccno3)c2cc1OC` [Compound r61], the inhibition at 3 µM under setting [1] was determined as 61%. The inhibition at 10 µM under setting [2] was 98%.

`COc1cc2nccc(Oc3ccccc3C(=O)c3ccccc3)c2cc1OC` [Compound r63]: under setting [3], the inhibition at 3 µM was determined as 57% and the inhibition at 10 µM amounted to 91%.

On to `COc1ccc(C(=O)c2ccccc2)c(Oc2ccnc3cc(OC)c(OC)cc23)c1` [Compound r64], for which the inhibition at 3 µM under setting [1] came out at 67%. For the same molecule, under setting [2], the inhibition at 10 µM amounted to 98%.

`COc1ccc(C(=O)c2ccc(C)cc2)c(Oc2ccnc3cc(OC)c(OC)cc23)c1` [Compound r65]: the inhibition at 3 µM under setting [1] is 58%. For the same molecule, under setting [2], the inhibition at 10 µM was 100%.

For the molecule `CCCCCCCCOc1ccc(C(=O)c2ccccc2)c(Oc2ccnc3cc(OC)c(OC)cc23)c1` [Compound r66], under setting [1], the inhibition at 3 µM came out at 22%. The inhibition at 10 µM under setting [2] was found to be 86%.

`C=C(C)C(=O)Oc1ccc(C(=O)c2ccccc2)c(Oc2ccnc3cc(OC)c(OC)cc23)c1` [Compound r67]: under setting [1], the inhibition at 3 µM turned out to be 4%. The inhibition at 10 µM under setting [2] came to 93%.

`COc1cc2nccc(Oc3ccc(Cl)cc3C(=O)c3ccccc3)c2cc1OC` [Compound r69]: the inhibition at 3 µM under setting [3] was determined as 100%.

Turning to `COc1cc2nccc(Oc3ccc(Br)cc3C(=O)c3ccccc3)c2cc1OC` [Compound r70], under setting [1], the inhibition at 3 µM was found to be 73%. The inhibition at 10 µM under setting [2] turned out to be 100%.

For the molecule `COC(=O)c1cc2ccccc2cc1Oc1ccnc2cc(OC)c(OC)cc12` [Compound r79, Methyl 3-[(6,7-Dimethoxy-4-quinolyl)oxy]naphthalene-2-carboxylate], the inhibition at 3 µM under setting [1] worked out at 97%. Under setting [2], the inhibition at 10 µM is 100%.

On to `CCOC(=O)c1ccccc1Oc1ccnc2cc(OC)c(OC)cc12` [Compound r80], for which the inhibition at 3 µM under setting [1] was determined as 62%. Further, under setting [2], the inhibition at 10 µM turned out to be 95%.

`CCOC(=O)c1ccc(Cl)cc1Oc1ccnc2cc(OC)c(OC)cc12` [Compound r81]: under setting [1], the inhibition at 3 µM was found to be 91%. In addition, the inhibition at 10 µM under setting [2] worked out at 100%.

Consider `CCOC(=O)c1ccc(C)cc1Oc1ccnc2cc(OC)c(OC)cc12` [Compound r82], for which the inhibition at 3 µM under setting [1] worked out at 90%. Besides, under setting [2], the inhibition at 10 µM is 99%.

In the case of `CCOC(=O)c1cc(F)ccc1Oc1ccnc2cc(OC)c(OC)cc12` [Compound r83], under setting [1], the inhibition at 3 µM came out at 41%. The inhibition at 10 µM under setting [2] amounted to 81%.

Consider `CCOC(=O)c1cc(Cl)ccc1Oc1ccnc2cc(OC)c(OC)cc12` [Compound r84], for which the inhibition at 3 µM under setting [1] was 84%. In addition, the inhibition at 10 µM under setting [2] came to 100%.

For `CCOC(=O)c1cc(Br)ccc1Oc1ccnc2cc(OC)c(OC)cc12` [Compound r85], under setting [1], the inhibition at 3 µM turned out to be 87%. Also, the inhibition at 10 µM under setting [2] is 100%.

Consider `CCOC(=O)c1cc(I)ccc1Oc1ccnc2cc(OC)c(OC)cc12` [Compound r86], for which the inhibition at 3 µM under setting [1] was 68%. Also, under setting [2], the inhibition at 10 µM worked out at 99%.

`CCOC(=O)c1cc(C)ccc1Oc1ccnc2cc(OC)c(OC)cc12` [Compound r87]: under setting [1], the inhibition at 3 µM stood at 84%. In addition, under setting [2], the inhibition at 10 µM is 99%.

On to `CCOC(=O)c1cc(C(C)=O)ccc1Oc1ccnc2cc(OC)c(OC)cc12` [Compound r88], for which the inhibition at 3 µM under setting [1] came out at 70%. Also, under setting [2], the inhibition at 10 µM was 94%.

In the case of `CCOC(=O)c1cc(-c2ccc(F)cc2F)ccc1Oc1ccnc2cc(OC)c(OC)cc12` [Compound r89], the inhibition at 3 µM under setting [1] turned out to be 20%. Moreover, the inhibition at 10 µM under setting [2] was 63%.

Regarding `CCOC(=O)c1cc(-n2cccc2)ccc1Oc1ccnc2cc(OC)c(OC)cc12` [Compound r90], under setting [1], the inhibition at 3 µM amounted to 54%. Under setting [2], the inhibition at 10 µM worked out at 95%.

Regarding `CCOC(=O)c1cc(OC)ccc1Oc1ccnc2cc(OC)c(OC)cc12` [Compound r91], the inhibition at 3 µM under setting [1] was 96%. Further, under setting [2], the inhibition at 10 µM stood at 100%.

Regarding `CCOC(=O)c1c(C)cccc1Oc1ccnc2cc(OC)c(OC)cc12` [Compound r92], the inhibition at 3 µM under setting [1] stood at 25%. Further, the inhibition at 10 µM under setting [2] stood at 82%.

With `COc1cc2nccc(Oc3ccccc3C(=O)OC(C)C)c2cc1OC` [Compound r93], the inhibition at 3 µM under setting [1] amounted to 44%. Further, the inhibition at 10 µM under setting [2] was found to be 88%.

As for `CCCOC(=O)c1ccccc1Oc1ccnc2cc(OC)c(OC)cc12` [Compound r94], the inhibition at 3 µM under setting [1] worked out at 39%. Moreover, the inhibition at 10 µM under setting [2] came to 97%.

Consider `CCCOC(=O)c1cc(C(C)=O)ccc1Oc1ccnc2cc(OC)c(OC)cc12` [Compound r95], for which the inhibition at 3 µM under setting [1] came out at 67%. For the same molecule, under setting [2], the inhibition at 10 µM turned out to be 96%.

On to `CCCOC(=O)c1cc(-c2ccc(F)cc2F)ccc1Oc1ccnc2cc(OC)c(OC)cc12` [Compound r96], for which the inhibition at 3 µM under setting [1] was found to be 19%. In addition, the inhibition at 10 µM under setting [2] was determined as 65%.

With `COc1cc2nccc(Oc3ccccc3C(=O)OCC(C)C)c2cc1OC` [Compound r97], the inhibition at 3 µM under setting [1] stood at 14%. For the same molecule, the inhibition at 10 µM under setting [2] is 92%.

Take `CCCCOC(=O)c1ccccc1Oc1ccnc2cc(OC)c(OC)cc12` [Compound r98]: the inhibition at 3 µM under setting [1] stood at 4%. Under setting [2], the inhibition at 10 µM was determined as 93%.

`COc1cc2nccc(Oc3ccccc3C(=O)OCCC(C)C)c2cc1OC` [Compound r99]: the inhibition at 3 µM under setting [1] came out at 7%. For the same molecule, the inhibition at 10 µM under setting [2] came out at 92%.

As for `CC/C=C\CCOC(=O)c1ccccc1Oc1ccnc2cc(OC)c(OC)cc12` [Compound r100], the inhibition at 3 µM under setting [1] came to 0%. Also, the inhibition at 10 µM under setting [2] worked out at 82%.

As for `CCCCC(CC)COC(=O)c1ccccc1Oc1ccnc2cc(OC)c(OC)cc12` (stereo not drawn) [Compound r101], under setting [1], the inhibition at 3 µM was determined as 0%. Further, the inhibition at 10 µM under setting [2] was determined as 64%.

For the molecule `COc1cc2nccc(Oc3cc4ccccc4cc3C(=O)Oc3ccccc3)c2cc1OC` [Compound r102], the inhibition at 3 µM under setting [1] was 33%. The inhibition at 10 µM under setting [2] turned out to be 95%.

With `COc1cc2nccc(Oc3ccc(Cl)cc3C(=O)Nc3ccccc3)c2cc1OC` [Compound r105], the inhibition at 3 µM under setting [1] worked out at 17%. Further, the inhibition at 10 µM under setting [2] is 88%.

For the molecule `COc1cc2nccc(Oc3ccc(Cl)cc3C(N)=O)c2cc1OC` [Compound r106], the inhibition at 3 µM under setting [1] worked out at 9%. In addition, under setting [2], the inhibition at 10 µM turned out to be 80%.

Take `COc1cc2nccc(Oc3ccc(Cl)cc3C(=O)Nc3ccc(Cl)c(Cl)c3)c2cc1OC` [Compound r107]: under setting [1], the inhibition at 3 µM came out at 0%. Further, under setting [2], the inhibition at 10 µM was 82%.

On to `COc1cc2nccc(Oc3ccc(Br)cc3C(=O)Nc3ccc(Cl)cc3)c2cc1OC` [Compound r108], for which the inhibition at 3 µM under setting [1] was 0%. For the same molecule, the inhibition at 10 µM under setting [2] came to 73%.

Take `CNC(=O)c1cc(OC)ccc1Oc1ccnc2cc(OC)c(OC)cc12` [Compound r110]: the inhibition at 3 µM under setting [1] worked out at 55%. Also, the inhibition at 10 µM under setting [2] was found to be 93%.

On to `COc1ccc(Oc2ccnc3cc(OC)c(OC)cc23)c(C(=O)NC(C)C)c1` [Compound r111], for which, under setting [1], the inhibition at 3 µM is 29%. In addition, the inhibition at 10 µM under setting [2] was 92%.

Regarding `COc1ccc(Oc2ccnc3cc(OC)c(OC)cc23)c(C(=O)NC2CCCCC2)c1` [Compound r112], the inhibition at 3 µM under setting [1] was determined as 44%. Besides, the inhibition at 10 µM under setting [2] worked out at 91%.

Take `COc1cc2nccc(Oc3c(Br)cc(Br)cc3C(=O)Nc3ccc(Br)cc3)c2cc1OC` [Compound r113]: the inhibition at 3 µM under setting [1] was found to be 0%. The inhibition at 10 µM under setting [2] is 96%.

With `COc1cc2nccc(Oc3ccc(C)nc3)c2cc1OC` [Compound r115, 4-[(6-Methyl-3-pyridyl)oxy]-6,7-dimethoxyquinoline], the inhibition at 3 µM under setting [1] stood at 74%. Also, the inhibition at 10 µM under setting [2] was determined as 97%.

Turning to `COc1cc2nccc(Oc3ccc(C)nc3C(C)=O)c2cc1OC` [Compound r117, 1-{[3-(6,7-Dimethoxy-4-quinolyl)oxy]-6-methyl-2-pyridyl}-1-ethanone], the inhibition at 3 µM under setting [1] was 84%. Further, under setting [2], the inhibition at 10 µM stood at 98%.

For the molecule `COc1ccc(Oc2ccnc3cc(OC(=O)N4CCOCC4)c(OC)cc23)c(C(C)=O)c1` [Compound r118, 4-(2-Acetyl-4-methoxyphenoxy)-6-methoxy-7-quinolyl 4-morpholine carboxylate], under setting [1], the inhibition at 3 µM was 97%. For the same molecule, under setting [2], the inhibition at 10 µM was 100%.

In the case of `COc1ccc(Oc2ccnc3cc(OCCCCl)c(OC)cc23)c(C(C)=O)c1` [Compound r121], under setting [1], the inhibition at 3 µM came to 100%. Besides, the inhibition at 10 µM under setting [2] is 100%.

Turning to `CCN(CC)CCOc1cc2nccc(Oc3ccc(C)cc3C(=O)c3ccccc3)c2cc1OC` [Compound r125], under setting [1], the inhibition at 3 µM is 98%. Moreover, under setting [2], the inhibition at 10 µM was determined as 100%.

Take `COc1cc2c(Oc3ccc(C)cc3C(=O)c3ccccc3)ccnc2cc1OCCN1CCC(CO)CC1` [Compound r126]: the inhibition at 3 µM under setting [1] was determined as 100%. The inhibition at 10 µM under setting [2] came to 100%.

On to `COc1cc2c(Oc3ccc(C)cc3C(=O)c3ccccc3)ccnc2cc1OCCN1CCC(N2CCCC2)CC1` [Compound r127], for which the inhibition at 3 µM under setting [1] is 99%. Further, the inhibition at 10 µM under setting [2] stood at 100%.

What is called inhibition is the drop in the measured response relative to a control, in per cent.

Values taken from patent publication EP1724268A1, “COMPOUND HAVING TGF-BETA INHIBITORY ACTIVITY AND PHARMACEUTICAL COMPOSITION CONTAINING SAME” (KIRIN BEER KABUSHIKI KAISHA, priority 2004, dated 2005).
